Results: ChEMBL document CHEMBL3351559, “Spectroscopic investigations of the binding mechanisms between antimicrobial peptides and membrane models of Pseudomonas aeruginosa and Klebsiella pneumoniae” (2014)
In brackets after ≈: the same amount, converted by molar mass. Activity calls are given as the source filed them. No cut-off for these calls is given here. *1 amine or outer side, *2 acyl side, *3 side chain or, on linkers, in order; H or OH if unused. Where a SMILES comes first, the peptide text is derived from it. [ ]: non-standard residue; d: D form. ξ: configuration not given here. Phe(4-NO2) = N[C@@H](Cc1ccc([N+](=O)[O-])cc1)C(=O)O; Pro(3ξ,4ξ-(CH2)4) = O=C(O)[C@H]1NCC2CCCCC21; X1 = O=C([C@H]1C2CCCCC2CN1[*:1])[*:2]; Tic = O=C(O)[C@@H]1Cc2ccccc2CN1; dTic = O=C(O)[C@H]1Cc2ccccc2CN1; dOrn = NCCC[C@@H](N)C(=O)O; Dab = NCC[C@H](N)C(=O)O; βAla = NCCC(=O)O

Key:
Klebsiella pneumoniae = assay: Antimicrobial activity against Klebsiella pneumoniae BAMC 07-18; type: functional; conditions: for MIC: Klebsiella pneumoniae, BAMC 07-18
Lipopolysaccharide (LPS) [1] = assay: Binding affinity to Pseudomonas aeruginosa lipopolysaccharide incorporated into 59% POPC/20% POPE/21% POPG by Far-UV circular dichroism spectroscopy
Lipopolysaccharide (LPS) [2] = assay: Binding affinity to Pseudomonas aeruginosa lipopolysaccharide at 0.1 mg by [1H] NMR spectroscopy
Lipopolysaccharide (LPS) [3] = assay: Binding affinity to Klebsiella pneumoniae lipopolysaccharide assessed as normalized peak area of proton resonances in region of 1.5 to 0.5 ppm by […] relative to untreated control
Lipopolysaccharide (LPS) [4] = assay: Binding affinity to Klebsiella pneumoniae lipopolysaccharide at 0.1 mg by [1H] NMR spectroscopy
Lipopolysaccharide (LPS) [5] = assay: Binding affinity to Pseudomonas aeruginosa lipopolysaccharide incorporated into 80% POPC/20% POPG by Far-UV circular dichroism spectroscopy
Pseudomonas aeruginosa = assay: Antimicrobial activity against Pseudomonas aeruginosa PAO1; type: functional; conditions: for MIC: Pseudomonas aeruginosa, PAO1
Lipopolysaccharide (LPS) [6] = assay: Binding affinity to Klebsiella pneumoniae lipopolysaccharide incorporated into phospholipid 75% POPC/20% POPE/5% POPG liposomes by Far-UV circular dichroism spectroscopy
Lipopolysaccharide (LPS) [7] = assay: Binding affinity to SUV consisting Pseudomonas aeruginosa lipopolysaccharide by CD spectroscopy
Lipopolysaccharide (LPS) [8] = assay: Binding affinity to SUV consisting Klebsiella pneumoniae lipopolysaccharide by CD spectroscopy
Lipopolysaccharide (LPS) [9] = assay: Binding affinity to Klebsiella pneumoniae lipopolysaccharide incorporated into 75% POPC/20% POPE/5% POPG liposomes by Far-UV circular dichroism spectroscopy; conditions: Liposome
Lipopolysaccharide (LPS) [10] = assay: Binding affinity to Pseudomonas aeruginosa lipopolysaccharide incorporated into 59% POPC/20% POPE/21% POPG liposomes by Far-UV circular dichroism spectroscopy; conditions: Liposome
Lipopolysaccharide (LPS) [11] = assay: Binding affinity to Pseudomonas aeruginosa lipopolysaccharide assessed as normalized peak area of proton resonances in region of 1.5 to 0.5 ppm by […] relative to untreated control
Lipopolysaccharide (LPS) [12] = assay: Binding affinity to Klebsiella pneumoniae lipopolysaccharide incorporated 75% POPC/20% POPE/5% POPG liposome by Far-UV circular dichroism spectroscopy

Row | Compound | MIC (Klebsiella pneumoniae) | Activity (Lipopolysaccharide (LPS) [1]) | Activity (Lipopolysaccharide (LPS) [2]) | Activity (Lipopolysaccharide (LPS) [3]) | Activity (Lipopolysaccharide (LPS) [4]) | Activity (Lipopolysaccharide (LPS) [5]) | MIC (Pseudomonas aeruginosa) | Activity (Lipopolysaccharide (LPS) [6]) | Activity (Lipopolysaccharide (LPS) [7]) | Activity (Lipopolysaccharide (LPS) [8]) | Activity (Lipopolysaccharide (LPS) [9]) | Activity (Lipopolysaccharide (LPS) [10]) | Activity (Lipopolysaccharide (LPS) [11]) | Activity (Lipopolysaccharide (LPS) [12]) | MBC (Klebsiella pneumoniae) | MBC (Pseudomonas aeruginosa)
1 | CC(=O)NCC(=O)N[C@@H](Cc1ccccc1)C(=O)N1Cc2ccccc2C[C@H]1C(=O)N1CC2CCCCC2[C@H]1C(=O)NCC(=O)N[C@@H](CCCCN)C(=O)N1Cc2ccccc2C[C@H]1C(=O)N1CC2CCCCC2[C@H]1C(=O)NCC(=O)N[C@@H](Cc1ccccc1)C(=O)N1Cc2ccccc2C[C@H]1C(=O)N1CC2CCCCC2[C@H]1C(=O)NCC(=O)N[C@@H](CCCCN)C(=O)N1Cc2ccccc2C[C@H]1C(=O)N[C@@H](CCCCN)C(=O)N[C@@H](CCCCN)C(=O)N[C@@H](CCCCN)C(=O)N[C@@H](CCCCN)C(N)=O (stereo partly drawn) (Ac-GF[Tic][Pro(3ξ,4ξ-(CH2)4)]GK[Tic][Pro(3ξ,4ξ-(CH2)4)]GF[Tic][Pro(3ξ,4ξ-(CH2)4)]GK[Tic]KKKK-NH2) | 40 µM (≈ 97.6 µg/mL) | Active | Active | 81% | Active | Active | 40 µM (≈ 97.6 µg/mL) | Active | Active | Active | Active | Active | 33% | Active | 40 µM (≈ 97.6 µg/mL) | 40 µM (≈ 97.6 µg/mL)
2 | CC(=O)NCC(=O)N[C@@H](Cc1ccccc1)C(=O)N1Cc2ccccc2C[C@H]1C(=O)N1CC2CCCCC2[C@@H]1C(=O)NCC(=O)N[C@H](CCCN)C(=O)N1Cc2ccccc2C[C@@H]1C(=O)N1CC2CCCCC2[C@H]1C(=O)NCC(=O)N[C@H](Cc1ccccc1)C(=O)N1Cc2ccccc2C[C@@H]1C(=O)N1CC2CCCCC2[C@@H]1C(=O)NCC(=O)N[C@H](CCCN)C(=O)N1Cc2ccccc2C[C@@H]1C(=O)N[C@H](CCCN)C(=O)N[C@H](CCCN)C(=O)N[C@H](CCCN)C(=O)N[C@H](CCCN)C(N)=O (stereo partly drawn) (Ac-GF[Tic][X1]G[dOrn][dTic][Pro(3ξ,4ξ-(CH2)4)]G[dF][dTic][X1]G[dOrn][dTic][dOrn][dOrn][dOrn][dOrn]-NH2) | 21 µM (≈ 49.5 µg/mL) | Active | Active | 93% | Active | Active | 21 µM (≈ 49.5 µg/mL) | Active | Active | Active | Active | Active | 36% | Active | 21 µM (≈ 49.5 µg/mL) | 21 µM (≈ 49.5 µg/mL)
3 | CC(=O)NCCC(=O)N[C@@H](Cc1ccccc1)C(=O)N1Cc2ccccc2C[C@H]1C(=O)N1CC2CCCCC2[C@H]1C(=O)NCCC(=O)N[C@@H](CCCCN)C(=O)N1Cc2ccccc2C[C@H]1C(=O)N1CC2CCCCC2[C@H]1C(=O)NCCC(=O)N[C@@H](Cc1ccccc1)C(=O)N1Cc2ccccc2C[C@H]1C(=O)N1CC2CCCCC2[C@H]1C(=O)NCCC(=O)N[C@@H](CCCCN)C(=O)N1Cc2ccccc2C[C@H]1C(=O)N[C@@H](CCCCN)C(=O)N[C@@H](CCCCN)C(=O)N[C@@H](CCCCN)C(=O)N[C@@H](CCCCN)C(N)=O (stereo partly drawn) (Ac-[βAla]F[Tic][Pro(3ξ,4ξ-(CH2)4)][βAla]K[Tic][Pro(3ξ,4ξ-(CH2)4)][βAla]F[Tic][Pro(3ξ,4ξ-(CH2)4)][βAla]K[Tic]KKKK-NH2) | 40 µM (≈ 99.9 µg/mL) | Active | – | – | – | Active | 40 µM (≈ 99.9 µg/mL) | Active | Active | Active | Active | Active | – | Active | 40 µM (≈ 99.9 µg/mL) | 40 µM (≈ 99.9 µg/mL)

The next compounds have a lower MIC (Klebsiella pneumoniae) than those just listed; values first:

Row | MIC (Klebsiella pneumoniae) | Activity (Lipopolysaccharide (LPS) [1]) | Activity (Lipopolysaccharide (LPS) [2]) | Activity (Lipopolysaccharide (LPS) [3]) | Activity (Lipopolysaccharide (LPS) [4]) | Activity (Lipopolysaccharide (LPS) [5]) | MIC (Pseudomonas aeruginosa) | Activity (Lipopolysaccharide (LPS) [6]) | Activity (Lipopolysaccharide (LPS) [7]) | Activity (Lipopolysaccharide (LPS) [8]) | Activity (Lipopolysaccharide (LPS) [9]) | Activity (Lipopolysaccharide (LPS) [10]) | Activity (Lipopolysaccharide (LPS) [11]) | Activity (Lipopolysaccharide (LPS) [12]) | Compound | MBC (Klebsiella pneumoniae) | MBC (Pseudomonas aeruginosa)
4 | 19.1 µM (≈ 49.8 µg/mL) | Active | Active | 81% | Active | Active | 38.4 µM (≈ 100 µg/mL) | Active | Active | Active | Active | Active | 39% | Active | CC(=O)NCC(=O)N[C@@H](Cc1ccccc1)C(=O)N1Cc2ccccc2C[C@H]1C(=O)N1CC2CCCCC2[C@H]1C(=O)NCC(=O)N[C@@H](CCCNC(=N)N)C(=O)N1Cc2ccccc2C[C@H]1C(=O)N1CC2CCCCC2[C@H]1C(=O)NCC(=O)N[C@@H](Cc1ccccc1)C(=O)N1Cc2ccccc2C[C@H]1C(=O)N1CC2CCCCC2[C@H]1C(=O)NCC(=O)N[C@@H](CCCNC(=N)N)C(=O)N1Cc2ccccc2C[C@H]1C(=O)N[C@@H](CCCNC(=N)N)C(=O)N[C@@H](CCCNC(=N)N)C(=O)N[C@@H](CCCNC(=N)N)C(=O)N[C@@H](CCCNC(=N)N)C(N)=O (stereo partly drawn) (Ac-GF[Tic][Pro(3ξ,4ξ-(CH2)4)]GR[Tic][Pro(3ξ,4ξ-(CH2)4)]GF[Tic][Pro(3ξ,4ξ-(CH2)4)]GR[Tic]RRRR-NH2) | 38.4 µM (≈ 100 µg/mL) | > 100 µM
5 | 5.5 µM (≈ 12.5 µg/mL) | Active | Active | 89% | Active | Active | 5.5 µM (≈ 12.5 µg/mL) | Active | Active | Active | Active | Active | 29% | Active | CC(=O)NCC(=O)N[C@@H](Cc1ccccc1)C(=O)N1Cc2ccccc2C[C@H]1C(=O)N1CC2CCCCC2[C@H]1C(=O)NCC(=O)N[C@@H](CCN)C(=O)N1Cc2ccccc2C[C@H]1C(=O)N1CC2CCCCC2[C@H]1C(=O)NCC(=O)N[C@@H](Cc1ccccc1)C(=O)N1Cc2ccccc2C[C@H]1C(=O)N1CC2CCCCC2[C@H]1C(=O)NCC(=O)N[C@@H](CCN)C(=O)N1Cc2ccccc2C[C@H]1C(=O)N[C@@H](CCN)C(=O)N[C@@H](CCN)C(=O)N[C@@H](CCN)C(=O)N[C@@H](CCN)C(N)=O (stereo partly drawn) (Ac-GF[Tic][Pro(3ξ,4ξ-(CH2)4)]G[Dab][Tic][Pro(3ξ,4ξ-(CH2)4)]GF[Tic][Pro(3ξ,4ξ-(CH2)4)]G[Dab][Tic][Dab][Dab][Dab][Dab]-NH2) | 5.5 µM (≈ 12.5 µg/mL) | 11 µM (≈ 25 µg/mL)
6 | 19.6 µM (≈ 49.6 µg/mL) | Active | – | – | – | Active | 19.6 µM (≈ 49.6 µg/mL) | Active | Active | Active | Active | Active | – | Active | CC(=O)NCC(=O)N[C@@H](Cc1ccc([N+](=O)[O-])cc1)C(=O)N1Cc2ccccc2C[C@H]1C(=O)N1CC2CCCCC2[C@H]1C(=O)NCC(=O)N[C@@H](CCCCN)C(=O)N1Cc2ccccc2C[C@H]1C(=O)N1CC2CCCCC2[C@H]1C(=O)NCC(=O)N[C@@H](Cc1ccc([N+](=O)[O-])cc1)C(=O)N1Cc2ccccc2C[C@H]1C(=O)N1CC2CCCCC2[C@H]1C(=O)NCC(=O)N[C@@H](CCCCN)C(=O)N1Cc2ccccc2C[C@H]1C(=O)N[C@@H](CCCCN)C(=O)N[C@@H](CCCCN)C(=O)N[C@@H](CCCCN)C(=O)N[C@@H](CCCCN)C(N)=O (stereo partly drawn) (Ac-G[Phe(4-NO2)][Tic][Pro(3ξ,4ξ-(CH2)4)]GK[Tic][Pro(3ξ,4ξ-(CH2)4)]G[Phe(4-NO2)][Tic][Pro(3ξ,4ξ-(CH2)4)]GK[Tic]KKKK-NH2) | 19.6 µM (≈ 49.6 µg/mL) | 39.1 µM (≈ 99 µg/mL)
